The results in this text go back to ChEMBL document CHEMBL1201862, “PubChem BioAssay data set” (2004).

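Each compound was tested at five concentrations against cells in 96-well plates for 48 hours. The concentration for 50% growth inhibition is given as GI50.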 Activity calls are given as the source filed them. No stated cut-off is given here; in the data, active = GI50 up to about 1.1 µM and inactive = higher.

Holding throughout (assay): inhibition of tumour cell growth, NCI panel, 48 h
The test system of assay [1] is KM12.
The test system of assay [2] is 786-0.
Assay [3] relates to A549.
The subject of assay [4] is CAKI-1.
The test system of assay [5] is SF-539.
Assay [6] deals with UACC-62.
The subject of assay [7] is SR.
For assay [8], the system named is HCT-116.
Assay [9] concerns SNB-19.
Assay [10] deals with LOX IMVI.
The subject of assay [11] is OVCAR-3.
The test system of assay [12] is SF-295.
The subject of assay [13] is HL-60.
Assay [14] has as its system IGROV-1.
Assay [15] deals with HT-29.
In assay [16] the test system is M14.
The test system of assay [17] is OVCAR-5.
For assay [18], the system named is UO-31.
Assay [19] concerns COLO 205.
Assay [20] deals with Malme-3M.

For the molecule `CC(C)=CC(=O)N1CCN(C(=O)C=C(C)C)CC1`, the GI50 in assay [1], in [2], in assay [3], in assay [4], in [5] and in assay [6] was > 100 µM (inactive) throughout. In addition, the GI50 in assay [7], in assay [8], in [9], in assay [10], in assay [11] and in assay [12] was > 100 µM (inactive) throughout. Further, the GI50 in assay [13], in assay [14], in assay [15], in assay [16], in assay [17] and in assay [18] was > 100 µM (inactive) each time.
As for `CN(C)CC/C(=N\Nc1ccc(Cl)c(Cl)c1)c1ccccc1`, the GI50 was 2.05 µM (inactive) in assay [1]; 1.71 µM (inactive) in assay [2]; 1.96 µM (inactive) in assay [3]; 1.82 µM (inactive) in assay [5]; 1.95 µM (inactive) in [6]; 1.77 µM (inactive) in assay [19]. The GI50 in [7] was 2.13 µM (inactive); in assay [20], 3.24 µM (inactive); in [8], 1.73 µM (inactive); in assay [9], 3.49 µM (inactive); in assay [10], 1.69 µM (inactive); in [11] it was 2.8 µM (inactive). Besides, the GI50 in assay [12] was 1.9 µM (inactive); in assay [13], 2.29 µM (inactive); in [14], 2.18 µM (inactive); in assay [15] it was 1.96 µM (inactive); in [17], 2.56 µM (inactive); in assay [18], 1.45 µM (inactive).
With `Oc1ccc(/C=N/c2ccccc2O)cc1`, the GI50 in assay [1] is 75.3 µM (inactive); in assay [2], 23.3 µM (inactive); in assay [3], 54.2 µM (inactive); in assay [4], 68.1 µM (inactive); in assay [5] it was 71.3 µM (inactive); in [6], 37.5 µM (inactive). Besides, the GI50 is 30.2 µM (inactive) in [19]; 48.6 µM (inactive) in [7]; 50.1 µM (inactive) in assay [8]; > 100 µM (inactive) in [9]; 26.1 µM (inactive) in assay [10]; 40 µM (inactive) in assay [11]. For the same molecule, the GI50 in [12] is 52.2 µM (inactive); in assay [13] it was 12.7 µM (inactive); in assay [14] it was 54.7 µM (inactive); in assay [15], 69 µM (inactive); in assay [16], 35.5 µM (inactive); in [17], > 100 µM (inactive). Also, the GI50 in assay [18] is 25.9 µM (inactive).
As to `Oc1cc(-c2ccccn2)nc2cc(F)ccc12`, the GI50 in assay [1] is 36.1 µM (inactive); in [2] it was > 100 µM (inactive); in assay [3] it was 46 µM (inactive); in assay [5], 58.6 µM (inactive); in assay [6] it was 55.8 µM (inactive); in assay [19], 74.6 µM (inactive). Further, the GI50 is 18.9 µM (inactive) in assay [7]; 90.2 µM (inactive) in assay [20]; 43.3 µM (inactive) in assay [8]; > 100 µM (inactive) in assay [9]; 71 µM (inactive) in [10]; > 100 µM (inactive) in assay [11]. Moreover, the GI50 was > 100 µM (inactive) in assay [12]; > 100 µM (inactive) in assay [13]; > 100 µM (inactive) in assay [14]; 49.1 µM (inactive) in [15]; 81.1 µM (inactive) in assay [16]; > 100 µM (inactive) in assay [17]. Further, in [18], the GI50 is > 100 µM (inactive).
Regarding `OC1C2CN3CCN(C2)CC1(c1ccccc1)C3` (stereo not given), the GI50 in assay [1], in assay [2], in [4], in [5], in [6] and in assay [19] was > 100 µM (inactive) each time. The GI50 in assay [7], in [20], in [8], in [9], in assay [10] and in assay [11] was > 100 µM (inactive) each time. The GI50 in assay [12], in assay [13], in assay [14], in assay [15], in assay [17] and in assay [18] was > 100 µM (inactive) in each case.
With `COC(=O)/C=C/c1ccc2c(c1)CC1(Cc3ccccc3C1)C2`, the GI50 in [1] was > 100 µM (inactive); in assay [2], > 100 µM (inactive); in assay [3], 0.0463 µM (active); in [5], > 100 µM (inactive); in assay [6], 15.2 µM (inactive); in assay [19], > 100 µM (inactive). The GI50 was 32.6 µM (inactive) in assay [7]; > 100 µM (inactive) in assay [20]; 0.0478 µM (active) in assay [8]; > 100 µM (inactive) in [10]; > 100 µM (inactive) in [11]; > 100 µM (inactive) in assay [12]. For the same molecule, the GI50 in [13] was 30.5 µM (inactive); in assay [14] it was > 100 µM (inactive); in [15] it was 79.4 µM (inactive); in [16] it was > 100 µM (inactive); in [17], > 100 µM (inactive); in [18] it was > 100 µM (inactive).
Regarding `N#Cc1nc(COCCOCc2ccc(F)cc2)oc1N`, the GI50 in assay [1], in [2], in [3], in [4], in assay [5] and in assay [6] was > 100 µM (inactive) each time. Further, the GI50 in assay [19], in [7], in assay [8], in [10], in assay [11] and in assay [12] was > 100 µM (inactive) throughout. Moreover, the GI50 in assay [13] is > 100 µM (inactive); in assay [14], > 100 µM (inactive); in assay [15], > 100 µM (inactive); in assay [16], > 100 µM (inactive); in assay [17] it was > 100 µM (inactive); in assay [18], 50.4 µM (inactive).
As to `COc1cc(OC)cc(Oc2nc3ccc(C(F)(F)F)cc3nc2-c2ccccc2)c1`, the GI50 in assay [1], in assay [2], in assay [3], in assay [4], in assay [5] and in [6] was > 100 µM (inactive) each time. Besides, the GI50 in assay [19], in [7], in assay [20], in assay [8], in assay [10] and in assay [11] was > 100 µM (inactive) throughout. Besides, the GI50 in assay [12] is > 100 µM (inactive); in assay [13], > 100 µM (inactive); in assay [14] it was > 100 µM (inactive); in assay [15] it was 60 µM (inactive); in [17] it was > 100 µM (inactive); in assay [18], > 100 µM (inactive).
In the case of `O=[N+]([O-])C1C2C=CC(C2)[C@H]1c1ccc(Cl)cc1Cl` (stereo not given in full), the GI50 in [1] was 61.2 µM (inactive); in assay [2], 54.3 µM (inactive); in [3] it was 35.2 µM (inactive); in assay [4] it was > 10 µM (inactive); in assay [5] it was 35.8 µM (inactive); in assay [7], 35.7 µM (inactive). Moreover, the GI50 in assay [20] is 42.3 µM (inactive); in assay [8] it was 37 µM (inactive); in [9], 48.5 µM (inactive); in [10], 29.7 µM (inactive); in assay [12] it was 24.8 µM (inactive); in assay [13], 19.3 µM (inactive). In addition, the GI50 is 21.4 µM (inactive) in assay [15], > 10 µM (inactive) in assay [16], 75.2 µM (inactive) in [17] and 26.4 µM (inactive) in [18].
On to `OC1(C(O)(c2ccc(-c3ccccc3)cc2)c2ccc(-c3ccccc3)cc2)CCCCC1`, for which the GI50 is > 100 µM (inactive) in [1]; > 100 µM (inactive) in assay [2]; 81.5 µM (inactive) in assay [3]; > 100 µM (inactive) in assay [4]; > 100 µM (inactive) in assay [5]; > 100 µM (inactive) in assay [6]. Moreover, the GI50 was > 100 µM (inactive) in assay [19]; 28.6 µM (inactive) in [7]; > 100 µM (inactive) in [8]; > 100 µM (inactive) in assay [9]; > 100 µM (inactive) in assay [10]; > 100 µM (inactive) in [11]. The GI50 was > 100 µM (inactive) in assay [12]; > 100 µM (inactive) in assay [13]; > 100 µM (inactive) in [14]; 87.9 µM (inactive) in assay [15]; > 100 µM (inactive) in assay [16]; > 100 µM (inactive) in assay [17]. Besides, the GI50 in [18] was > 100 µM (inactive).
For the molecule `c1ccc(-c2ccc(-c3ccc(C4=NCCN4)cc3)o2)cc1`, the GI50 in assay [1] is 1.92 µM (inactive); in [2], 1.68 µM (inactive); in [3], 2.64 µM (inactive); in assay [4], 2.34 µM (inactive); in assay [5], 2.11 µM (inactive); in assay [6], 1.77 µM (inactive). Moreover, the GI50 is 1.73 µM (inactive) in assay [19]; 0.773 µM (active) in assay [7]; 1.77 µM (inactive) in assay [8]; 2.4 µM (inactive) in assay [9]; 1.93 µM (inactive) in [10]; 5.5 µM (inactive) in assay [11]. Also, the GI50 is 1.92 µM (inactive) in assay [12]; 1.79 µM (inactive) in [13]; 2.74 µM (inactive) in assay [14]; 1.77 µM (inactive) in assay [15]; 1.68 µM (inactive) in assay [16]; 2.69 µM (inactive) in [17]. The GI50 in assay [18] was 1.71 µM (inactive).
